Data: patent US11807625B2, “Capsid inhibitors for the prevention of HIV” (Gilead Sciences, Inc., priority 2019, dated 2023)

Experiment: PK of compound of Formula (Ia) after single subcutaneous dose of solution formulations in Wistar Han rats
Assay type: in vivo
Conditions: male, Wistar Han, rat, plasma, sc, 50 mg/kg, Wistar Han rats, SC 50 mg/kg
Experimental: Formulations containing the compound of Formula (Ia), or a pharmaceutically acceptable salt thereof, were prepared as solutions and optionally administered subcutaneously or intramuscularly to rats, rabbits, and/or dogs.
(§1) A solution of about 400 mg/mL of the compound of Formula (Ia) having 19.14 w/w % water, 40.66 w/w % PEG 300, 35.20 w/w % of a sodium salt of a compound of Formula (Ia), and 5.00% ethanol was prepared. The solution was administered subcutaneously to male Wistar Han rats at a dose level of about 50 mg/kg and dose volume of 0.125 mL/kg and the pharmacokinetic (PK) profile was determined.
as §1, with “500” for “400”, “16.64” for “19.14”, “35.36” for “40.66”, “43.00” for “35.20”, “0.1” for “0.125”
(§2) A solution of about 400 mg/mL of the compound of Formula (Ia) having 17.00 w/w % water, 36.40 w/w % PEG 300, 35.20 w/w % of a sodium salt of a compound of Formula (Ia), 5.00 w/w % ethanol, and 6.40 w/w % poloxamer 188 was prepared. The solution was administered subcutaneously to male beagle dogs at a dose level of about 12 mg/kg and male Wistar Han rats at a dose level of about 50 mg/kg. The pharmacokinetic profiles were determined, and the results for dogs are summarized in Table and Table, while the results for rats are summarized in Table and Table below.
as §2, with “500” for “400”, “14.06” for “17.00”, “30.12” for “36.40”
A solution of about 300 mg/mL of the compound of Formula (Ia) having 23.33 w/w % water, 48.99 w/w % PEG 300, 26.47 w/w % of a sodium salt of a compound of Formula (Ia), and 1.21 w/w % poloxamer 188 was prepared. The solution was administered subcutaneously to male beagle dogs at a dose level of about 6 mg/kg and male Wistar Han rats at a dose level of about 50 mg/kg. The pharmacokinetic profiles were determined, and the results for dogs are summarized in Table and Table, while the results for rats are summarized in Table and Table below.
as §2, with “18.80” for “17.00”, “40.25” for “36.40”, “34.38” for “35.20”, “1.57” for “6.40”
as §2, with “500” for “400”, “16.29” for “17.00”, “34.88” for “36.40”, “41.92” for “35.20”, “1.91” for “6.40”
A solution of about 400 mg/mL of the compound of Formula (Ia) having 20.90 w/w % water, 44.72 w/w % PEG 300, and 34.38 w/w % of a sodium salt of a compound of Formula (Ia) was prepared. […]

[1] = 400 mg/mL solution AA (6.25% poloxamer 188), Mean n = 4
[2] = 400 mg/mL solution W (5.00% ethanol, 1.57% poloxamer 188), Mean n = 3
[3] = 400 mg/mL solution W (5.00% ethanol, 1.57% poloxamer 188), animals #1-#3
[4] = 400 mg/mL solution Y (water, PEG 300), Mean n = 4
[5] = 400 mg/mL solution Y (water, PEG 300), animals #1-#4
[6] = 400 mg/mL solution Z (3.13% poloxamer 188), Mean n = 4
[7] = 400 mg/mL solution Z (3.13% poloxamer 188), animals #1-#4
[8] = 400 mg/mL solution Z (3.13% poloxamer 188), Mean (#2 NS)
[9] = 400 mg/mL solution Z (3.13% poloxamer 188), animals #1, #3, #4 (#2 NS)
[10] = 500 mg/mL solution X (5.00% ethanol, 1.91% poloxamer 188), Mean n = 3
[11] = 500 mg/mL solution X (5.00% ethanol, 1.91% poloxamer 188), animals #1-#3

concentration at 2016 h [1]: 78.2 nM
concentration at 2352 h [1]: 75.4 nM
concentration at 2688 h [1]: 74.6 nM
concentration at 3024 h [1]: 69.8 nM
concentration at 3360 h [1]: 64.1 nM
concentration at 3696 h [1]: 65.7 nM
concentration at 1 h [2]: 30.6 nM
concentration at 3 h [2]: 53.4 nM
concentration at 8 h [2]: 76.9 nM
concentration at 24 h [2]: 120 nM
concentration at 24 h [3]: 127 nM
concentration at 48 h [2]: 152 nM
concentration at 48 h [3]: 128 nM
concentration at 72 h [2]: 152 nM
concentration at 72 h [3]: 112 nM
concentration at 96 h [2]: 138 nM
concentration at 96 h [3]: 98.6 nM
concentration at 168 h [2]: 118 nM
concentration at 168 h [3]: 80 nM
concentration at 336 h [2]: 171 nM
concentration at 336 h [3]: 123 nM
concentration at 504 h [2]: 248 nM
concentration at 504 h [3]: 194 nM
concentration at 672 h [2]: 261 nM
concentration at 672 h [3]: 217 nM
concentration at 840 h [2]: 290 nM
concentration at 840 h [3]: 273 nM
concentration at 1008 h [2]: 239 nM
concentration at 1008 h [3]: 176 nM
concentration at 1344 h [2]: 305 nM
concentration at 1344 h [3]: 260 nM
concentration at 1680 h [2]: 261 nM
concentration at 1680 h [3]: 206 nM
concentration at 2016 h [2]: 201 nM
concentration at 2016 h [3]: 163 nM
concentration at 2352 h [2]: 162 nM
concentration at 2352 h [3]: 164 nM
concentration at 2688 h [2]: 173 nM
concentration at 2688 h [3]: 170 nM
concentration at 3024 h [2]: 131 nM
concentration at 3024 h [3]: 145 nM
concentration at 3360 h [2]: 129 nM
concentration at 3360 h [3]: 151 nM
concentration at 3696 h [2]: 107 nM
concentration at 3696 h [3]: 133 nM
concentration at 4032 h (400 mg/mL solution W (5.00% ethanol, 1.57% poloxamer 188), 4032 h, Mean n = 3): 97.5 nM
concentration at 4704 h (400 mg/mL solution W (5.00% ethanol, 1.57% poloxamer 188), 4704 h, Mean n = 3): 57.9 nM
concentration at 1 h [4]: 28.6 nM
concentration at 1 h [5]: 28.7 nM
concentration at 3 h [4]: 52.2 nM
concentration at 3 h [5]: 51.3 nM
concentration at 8 h [4]: 65.8 nM
concentration at 8 h [5]: 62.1 nM
concentration at 24 h [4]: 93.2 nM
concentration at 24 h [5]: 72.1 nM
concentration at 48 h [4]: 110 nM
concentration at 48 h [5]: 83 nM
concentration at 72 h [4]: 109 nM
concentration at 72 h [5]: 87.1 nM
concentration at 96 h [4]: 95.3 nM
concentration at 168 h [4]: 85.7 nM
concentration at 336 h [4]: 103 nM
concentration at 504 h [4]: 131 nM
concentration at 672 h [4]: 151 nM
concentration at 840 h [4]: 158 nM
concentration at 1008 h [4]: 162 nM
concentration at 1344 h [4]: 159 nM
concentration at 1680 h [4]: 132 nM
concentration at 2016 h [4]: 117 nM
concentration at 2352 h [4]: 118 nM
concentration at 2688 h [4]: 119 nM
concentration at 3024 h [4]: 105 nM
concentration at 3360 h [4]: 95.2 nM
concentration at 3696 h [4]: 90.4 nM
concentration at 1 h [6]: 41.7 nM
concentration at 3 h [6]: 70.3 nM
concentration at 8 h [6]: 85.9 nM
concentration at 24 h [6]: 144 nM
concentration at 48 h [6]: 165 nM
concentration at 72 h [6]: 163 nM
concentration at 96 h [6]: 147 nM
concentration at 168 h [6]: 135 nM
concentration at 336 h [6]: 169 nM
concentration at 504 h [6]: 166 nM
concentration at 672 h [6]: 172 nM
concentration at 672 h [7]: 163 nM
concentration at 840 h [6]: 174 nM
concentration at 1008 h [6]: 164 nM
concentration at 1008 h [7]: 137 nM
concentration at 1344 h [6]: 138 nM
concentration at 1344 h [7]: 113 nM
concentration at 1680 h [6]: 127 nM
concentration at 1680 h [7]: 108 nM
concentration at 2016 h [6]: 127 nM
concentration at 2016 h [7]: 111 nM
concentration at 2352 h [6]: 127 nM
concentration at 2352 h [7]: 101 nM
concentration at 2688 h [6]: 141 nM
concentration at 2688 h [7]: 118 nM
concentration at 3024 h [6]: 133 nM
concentration at 3024 h [7]: 110 nM
concentration at 3360 h [8]: 133 nM
concentration at 3360 h [9]: 109 nM
concentration at 3696 h [8]: 135 nM
concentration at 3696 h [9]: 91.2 nM
concentration at 1 h [10]: 46.8 nM
concentration at 3 h [10]: 77.6 nM
concentration at 3 h [11]: 89 nM
concentration at 8 h [10]: 96.2 nM
concentration at 8 h [11]: 115 nM
concentration at 24 h [10]: 184 nM
concentration at 24 h [11]: 164 nM
concentration at 48 h [10]: 209 nM
concentration at 48 h [11]: 209 nM
concentration at 72 h [10]: 199 nM
concentration at 72 h [11]: 207 nM
concentration at 96 h [10]: 187 nM
concentration at 96 h [11]: 193 nM
concentration at 168 h [10]: 176 nM
concentration at 168 h [11]: 204 nM
concentration at 336 h [10]: 233 nM
concentration at 336 h [11]: 269 nM
concentration at 504 h [10]: 270 nM
concentration at 504 h [11]: 311 nM
concentration at 672 h [10]: 270 nM
concentration at 672 h [11]: 312 nM
concentration at 840 h [10]: 294 nM
concentration at 840 h [11]: 361 nM
concentration at 1008 h [10]: 235 nM
concentration at 1008 h [11]: 209 nM
concentration at 1344 h [10]: 272 nM
concentration at 1344 h [11]: 314 nM
concentration at 1680 h [10]: 247 nM
concentration at 1680 h [11]: 206 nM
concentration at 2016 h [10]: 193 nM
concentration at 2016 h [11]: 161 nM
concentration at 2352 h [10]: 158 nM
concentration at 2352 h [11]: 111 nM
SMILES: CC(C)(C#Cc1ccc(-c2ccc(Cl)c3c(NS(C)(=O)=O)nn(CC(F)(F)F)c23)c([C@H](Cc2cc(F)cc(F)c2)NC(=O)Cn2nc(C(F)(F)F)c3c2C(F)(F)[C@@H]2C[C@H]32)n1)S(C)(=O)=O [compound of Formula (Ia)]
